We go through nine compounds from patent US6759384B1, “Factor Xa inhibitors” (Aventis Pharmaceuticals Inc., priority 1994, dated 2004).

pEC50, pKi: −log10 of the molar value. Counter-ions that a name gives are not always drawn. Like-named read-outs stand apart in the source and are kept apart here. Starred links: 1 amine or outer side, 2 acyl side, 3 side chain; linkers in the order of their positions; H or OH if unused. Non-standard residues stand in square brackets, D forms with d. Residues, ends and D or L forms follow the SMILES beside them. No end group written: not given here. *: point of attachment. X1 = CC(C)CN([C@@H](Cc1ccc(O)cc1)C(=O)[*:2])[*:1]; 2Nal = N[C@@H](Cc1ccc2ccccc2c1)C(=O)O; Chg = N[C@H](C(=O)O)C1CCCCC1; Tfa = O=C(C(F)(F)F)*

In one data set the target is factor Xa. The settings on record: background section; cited from earlier work.
The target of data set [1] is T1, human neutrophil elastase (Homo sapiens, UniProt P08246).
T1 construct: purchased Athens Research and Technology, Inc; Athens Ga
T1 sequence (P08246 30-247 limits assumed): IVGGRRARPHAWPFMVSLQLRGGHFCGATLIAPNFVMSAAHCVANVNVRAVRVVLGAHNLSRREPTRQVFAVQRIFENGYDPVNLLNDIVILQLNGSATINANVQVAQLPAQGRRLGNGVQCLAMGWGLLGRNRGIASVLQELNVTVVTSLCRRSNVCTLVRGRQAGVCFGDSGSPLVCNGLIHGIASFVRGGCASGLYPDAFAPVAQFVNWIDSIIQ
Description: Elastase chromogenic assay. In kind it is biochemical. The settings on record: Table 2. How it is done:
(§1) The ability of a compound of the invention to inhibit factor Xa, thrombin, plasmin, elastase and trypsin was assessed by determining the concentration of YIR peptide that inhibits enzyme activity by 50% (IC50). Purified enzymes were used in chromogenic assays. To determine the inhibition constant, the IC50 value was corrected for competition with substrate using the formula:
(§2) Ki=IC50×(1/{1+((substrate concentration)/substrate Km)})
Tris-Cl, pH 7.4, 300 mM NaCl, 2% (v/v) N-methyl-pyrrolidone, 0.01% (w/v) NaN3 buffer was used for this assay. The IC50 was determined as described in Example XXXVII.a., except that the substrate was succinyl-Ala-Ala-Ala-p-nitroanilide (Calbiochem-Nova Biochem Corp.; San Diego Calif.) and the enzyme was human neutrophil elastase (Athens Research and Technology, Inc.; Athens Ga.). The enzyme concentration was 75 nM and the substrate concentration was 600 μM.

The target of the next data set is T2, human factor Xa (Homo sapiens, UniProt P00742).
T2 construct: purchased Enzyme Research Laboratories, Inc; South Bend Ind
T2 sequence (P00742 235-488 limits assumed): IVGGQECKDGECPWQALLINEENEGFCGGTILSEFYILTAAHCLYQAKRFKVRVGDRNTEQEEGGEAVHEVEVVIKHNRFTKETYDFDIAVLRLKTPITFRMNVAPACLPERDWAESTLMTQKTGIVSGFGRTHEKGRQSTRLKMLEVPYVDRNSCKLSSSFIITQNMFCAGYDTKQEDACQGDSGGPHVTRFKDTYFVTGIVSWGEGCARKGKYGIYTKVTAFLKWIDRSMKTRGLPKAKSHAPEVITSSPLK
T2 sequence (P00742 41-179 partner limits assumed): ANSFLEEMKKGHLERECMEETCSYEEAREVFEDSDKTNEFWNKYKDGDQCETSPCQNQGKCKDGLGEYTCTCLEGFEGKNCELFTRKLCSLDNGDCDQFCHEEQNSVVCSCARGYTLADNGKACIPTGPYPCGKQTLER
Description: Factor Xa chromogenic assay. It counts as biochemical. As to the method: as §1, §2
(Chen and Prusoff, Biochem. Pharmacol. 22:3099-[…] (1973), which is incorporated herein by reference).
TBS-P buffer (50 mM Tris-Cl, pH 7.8, 200 mM NaCl, 0.05% (w/v) PEG-8000, 0.02% (w/v) NaN3) was used for this assay. The IC50 was determined by combining in appropriate wells of a Costar half-area microtiter plate 25 μl human factor Xa (Enzyme Research Laboratories, Inc.; South Bend Ind.) in TBS-P; 40 μl 10% (v/v) DMSO in TBS-P (uninhibited control) or various concentrations of a peptide to be tested diluted in 10% (v/v) DMSO in TBS-P; and substrate S-2765 (Nα-benzyloxycarbonyl-D-Arg-Gly-L-Arg-p-nitroanilide; Kabi Pharmacia, Inc.; Franklin Ohio) in TBS-P.
The assays were performed by pre-incubating the peptide inhibitor plus enzyme for 10 min, then the assay was initiated by adding substrate to obtain a final volume of 100 μl. The initial velocity of chromogenic substrate hydrolysis was measured by the change in absorbance at 405 nm using a Bio-tek Instruments kinetic plate reader (Ceres UV900HDi) at 25° C. during the linear portion of the time course (usually 1-5 min after addition of substrate). The concentration of inhibitor that caused a 50% decrease in the rate of substrate hydrolysis was predicted by linear regression after plotting the relative rates of hydrolysis (compared to the uninhibited control) versus the log of the peptide concentration. The enzyme concentration was 0.5 nM and substrate concentration was 140 μM.

The target of the next data set is T3, human plasmin (Homo sapiens, UniProt P00747).
T3 construct: the enzyme was human plasmin (Kabi); purchased Kabi
T3 sequence (P00747 581-810 limits assumed): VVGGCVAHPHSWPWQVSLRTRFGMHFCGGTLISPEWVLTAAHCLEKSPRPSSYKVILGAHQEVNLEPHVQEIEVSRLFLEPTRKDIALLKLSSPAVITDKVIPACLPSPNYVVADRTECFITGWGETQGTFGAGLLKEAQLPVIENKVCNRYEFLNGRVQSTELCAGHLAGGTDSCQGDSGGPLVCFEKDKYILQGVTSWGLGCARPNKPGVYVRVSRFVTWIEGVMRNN
T3 sequence (P00747 97-580 partner limits assumed): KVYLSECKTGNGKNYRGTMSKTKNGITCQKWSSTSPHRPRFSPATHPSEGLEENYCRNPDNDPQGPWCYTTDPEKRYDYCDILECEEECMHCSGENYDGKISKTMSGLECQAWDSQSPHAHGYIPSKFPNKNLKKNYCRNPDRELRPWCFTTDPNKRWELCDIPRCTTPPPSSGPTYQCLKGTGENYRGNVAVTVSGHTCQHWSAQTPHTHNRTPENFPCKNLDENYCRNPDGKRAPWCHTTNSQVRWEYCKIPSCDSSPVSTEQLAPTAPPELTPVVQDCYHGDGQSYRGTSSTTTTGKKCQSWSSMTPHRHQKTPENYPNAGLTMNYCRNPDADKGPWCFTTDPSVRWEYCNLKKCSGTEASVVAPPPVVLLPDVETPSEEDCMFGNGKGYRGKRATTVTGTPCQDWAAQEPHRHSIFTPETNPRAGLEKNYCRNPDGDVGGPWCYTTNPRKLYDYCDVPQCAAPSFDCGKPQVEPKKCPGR
Description: Plasmin chromogenic assay. In kind it is biochemical. The conditions noted are these: Table 2. How it is done: as §1, §2
TBS-P buffer was used for this assay. The IC50 was determined as described in Example XXXVII.a., except that the substrate was S-2251 ((D)-Val-L-Leu-L-Lys-p-nitroanilide; Kabi) and the enzyme was human plasmin (Kabi). The enzyme concentration was 5 nM and the substrate concentration was 300 uM.

In data set [2] the test system is pooled human platelet poor plasma. Description: In vitro dilute prothrombin time assay. The conditions noted are these: concentration giving 50% inhibition of coagulation, dilute PT. In kind it is biochemical. As to the method:
The compounds of the invention were assessed for their ability to inhibit factor Xa activity. Effectiveness of various compounds was assessed by the in vitro prothrombin time (PT) assay using pooled human donor plasma. An ex vivo assay also was used in which plasma was collected at various times after intravenous (iv) administration of a compound to rats and to rabbits or intraduodenal administration to rats and analyzed using the PT assay to determine plasma half-life. The PT assay was initiated with a thromboplastin dilution selected to obtain an extended and highly reproducible coagulation endpoint, referred to as the “dilute PT assay” as described below. Effectiveness of various compounds also was determined using an in vivo rat arteriovenous shunt model of thrombosis. […]
Alternatively, the dilute prothrombin time assay was conducted using the “research” mode on an Instrumentation Laboratories (IL) ACL3000-plus automated coagulation instrument (IL; Milan, Italy). […] During the assay, a 50 μl sample (plasma separated by centrifugation) was mixed with 100 μl thromboplastin reagent and nephelometric readings were taken over 169 sec. Coagulation time was determined from the maximal rate of change of light scatter calculated by the instrument. Inhibition is expressed as percent activity as determined by comparison with the calibration curve.

Data set [3] in a line: Ex vivo dilute prothrombin time assay after iv administration to rabbits. The settings on record: rabbit, in vivo, time at which approximately 50% of the initial anticoagulant activity remains in plasma, read-out: T1/2 Rabbit ex vivo. How it is done:
(§3) The compounds of the invention were assessed for their ability to inhibit factor Xa activity. Effectiveness of various compounds was assessed by the in vitro prothrombin time (PT) assay using pooled human donor plasma. An ex vivo assay also was used in which plasma was collected at various times after intravenous (iv) administration of a compound to rats and to rabbits or intraduodenal administration to rats and analyzed using the PT assay to determine plasma half-life. The PT assay was initiated with a thromboplastin dilution selected to obtain an extended and highly reproducible coagulation endpoint, referred to as the “dilute PT assay” as described below. Effectiveness of various compounds also was determined using an in vivo rat arteriovenous shunt model of thrombosis.
(§4) Test compound was administered iv either through the tail vein (rat) or ear vein (rabbit) following an approved protocol. One ml blood samples were removed at timed intervals after administration of a test compound from a cannulated carotid artery (rat) or auricular artery (rabbit). After centrifugation to obtain PPP, the plasma was immediately stored on ice or frozen.
(§5) For dilute prothrombin time determination, the plasma was prewarmed and assayed as described above. Percent inhibition was calculated from a thromboplastin dilution curve, which was run with each series of samples, and used to determine the time at which approximately 50% of the initial anticoagulant activity remains in the plasma (T1/2).

Data set [4] in a line: Ex vivo dilute prothrombin time assay after iv administration to rats. The settings on record: rat, in vivo, time at which approximately 50% of the initial anticoagulant activity remains in plasma, read-out: T1/2 Rat ex vivo. How it is done: as §3, §4, §5
Various compounds also were examined for anticoagulant activity using the ex vivo dilute prothrombin time assay following iv bolus administration of various doses in rats. […] The structures of all of the compounds listed in Table 5 were confirmed by MS and AA.

The next data set has as its target T4, human thrombin (Homo sapiens, UniProt P00734).
T4 construct: purchased Enzyme Research Laboratories, Inc; South Bend Ind
Description: Thrombin chromogenic assay. In kind it is biochemical. The settings on record: Table 2. How it is done:
as §1, §2
TBS-P buffer was used for this assay. The IC50 was determined as described in Example XXXVII.a., except that the substrate was S-2366 (L-PyroGlu-L-Pro-L-Arg-p-nitroanilide; Kabi) and the enzyme was human thrombin (Enzyme Research Laboratories, Inc.; South Bend Ind.). The enzyme concentration was 1 nM and substrate concentration was 175 μM.

Data set [5] concerns the target T5, bovine pancreatic trypsin (Bos taurus, UniProt P00760).
T5 construct: purchased Sigma Type XIII, TPCK treated; host or cells: bovine pancreas
T5 sequence (P00760 24-246): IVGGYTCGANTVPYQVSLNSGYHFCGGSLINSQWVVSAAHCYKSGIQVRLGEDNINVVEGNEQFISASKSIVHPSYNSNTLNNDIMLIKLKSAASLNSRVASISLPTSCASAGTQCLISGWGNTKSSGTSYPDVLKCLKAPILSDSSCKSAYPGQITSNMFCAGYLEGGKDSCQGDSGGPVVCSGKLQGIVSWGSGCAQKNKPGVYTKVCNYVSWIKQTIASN
Description: Trypsin chromogenic assay. It counts as biochemical. The settings on record: Table 2; * no significant inhibition at the highest concentration tested. As to the method: as §1, §2
TBS-P buffer containing 10 mM CaCl2 was used for this assay. The IC50 determination was determined as described in Example XXXVII.a., except that the substrate was BAPNA (Benzoyl-L-Arg-p-nitroanilide; Sigma Chemical Co.; St. Louis Mo.) and the enzyme was bovine pancreatic trypsin (Type XIII, TPCK treated; Sigma). The enzyme concentration was 50 nM and the substrate concentration was 300 μM.

In general, pKi refers to the Ki on a negative log10 scale, so that one unit is a factor of ten. In the case of `N=C(N)c1ccc(C=C2CCCCC(=Cc3ccc(C(=N)N)cc3)C2=O)cc1` [2,7-bis-(4-amidinobenzylidene)-cycloheptanone, reference compound], the pKi on factor Xa was approximately 7.70.
Take `CC[C@H](C)[C@H](NC(=O)[C@H](Cc1ccc(O)cc1)N(CC(C)C)C(C)=O)C(=O)N[C@@H](CCCNC(=N)N)C(=O)N[C@@H](CC(C)C)C(=O)N1CCC[C@H]1C(N)=O` [Ac-(iBu)Y-I-R-L-P, Ac-(iBu)Tyr-Ile-Arg-Leu-Pro-NH2] (Ac-[X1]IRLP-NH2): the pKi in data set [1] was less than 4.00; at human factor Xa (Example XXXVI, read-out: Ki (inhibition of factor Xa activity)), 7.40; at human plasmin, less than 3.70.
As a reminder, the pEC50 is the negative decadic logarithm of the EC50, by convention in mol/L. For `CC(=O)N[C@@H](Cc1ccc2ccccc2c1)C(=O)N[C@H](C(=O)N[C@@H](CCCNC(=N)N)C(=O)N[C@@H](CC(C)C)C(=O)N1CCC[C@H]1C(N)=O)C1CCCCC1` [Ac—Nal(2)—Chg—R—L—P—NH2, Ac-Nal(2)-Chg-Arg-Leu-Pro-NH2] (Ac-[2Nal][Chg]RLP-NH2), in data set [2], the pEC50 was 6.85. Moreover, the results for the half-life in data set [3] and in data set [4] were 5 min and 6 min, respectively.
The like results for `CC(=O)N[C@@H](Cc1ccc(O)cc1)C(=O)N[C@H](C(=O)N[C@@H](CCCNC(=N)N)C(=O)N[C@@H](CC(C)C)C(=O)N1CCC[C@H]1C(N)=O)C1CCCCC1` [Ac—Y—Chg—R—L—P—NH2, Ac-Tyr-Chg-Arg-Leu-Pro-NH2] (Ac-Y[Chg]RLP-NH2) were, in that order, 6.65, 5 min and 5 min.
As for `CC(=O)N[C@@H](Cc1ccc(O)cc1)C(=O)N[C@H](C(=O)N[C@@H](CCCNC(=N)N)C(N)=O)C1CCCCC1` [Ac—Y—Chg—R—NH2] (Ac-Tyr-[Chg]-Arg-NH2), the half-life in data set [3] and in data set [4] was 5 min each time.
`CC(C)C[C@H](NC(=O)[C@H](CCCNC(=N)N)NC(=O)[C@@H](NC(=O)[C@H](Cc1ccc(O)cc1)N(CC(C)C)C(=O)C(F)(F)F)C1CCCCC1)C(=O)N1CCC[C@H]1C(N)=O` [Tfa—(iBu)Y—Chg—R—L—P—NH2, Tfa-(iBu)Tyr-Chg-Arg-Leu-Pro-NH2] (Tfa-[X1][Chg]RLP-NH2): the results for the half-life in [3] and in data set [4] were 10 min and 15 min, respectively.
For the compound “N-alpha-tosyl-Gly-p-amidinophenylalanine methyl ester [TENSTOP, reference compound]”, the pKi at factor Xa was approximately 6.10; at human thrombin, 5.70; in data set [1], less than 3.70; on human factor Xa (Table 2, read-out: Ki Xa), 5.70; at human plasmin it was less than 3.70.
“TAP: tick anticoagulant peptide, isolated from the tick Ornithodoros moubata, 60 amino acids (YNRLCIKPRDWIDECDSNEGGERAYFRNGKGGCDSFWICPEDHTGADYYSSYRDCFNACI; ends and bridges not checked; cysteine pairing not given here; UniProt P17726 1-60, looked up)”: the pKi on factor Xa was approximately 9.30.
Take “YIRLAAET [Ac-Y-I-R-L-A-A-E-T, Ac-Y-I-R-L-A-A-E-T (SEQ ID NO:9)]”: the pKi was 5.82 on human factor Xa (Table 2, read-out: Ki Xa) and less than 3.70 in [5].
